Experimental findings from patent US7981903B2, “2-[2-{phenylamino}-1H-pyrrolo[2,3-D]pyrimidin-4-yl)amino] benzamide derivatives as IGF-1R inhibitors for the treatment of cancer” (GlaxoSmithKline LLC, priority 2007, dated 2011) are described below.

For one experiment, the target named is ALK (Homo sapiens, UniProt Q9UM73). The experiment can be described thus: ALK enzyme assay (HTRF). Format: biochemical. Particulars: 0.25 nM ALK, 15.0 μM ATP, values given as pIC50 category. In a few lines:
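Final compound range 0.00017 to 10 μM (twelve 1:3 dilutions). Kinase reaction with ATP and biotinylated synthetic peptide runs 120 min at 20° C, stopped with EDTA; phosphotyrosine detected by HTRF after 60 min. Inhibition referenced to DMSO (1%) and EDTA (0.1 M) controls, curve-fitted.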

For the next experiment, the system named is Colo205. In words: Inhibition of cell proliferation (CellTiter-Glo or InCell analyzer), Colo205. It counts as cell-based. Particulars: Homo sapiens, COLO 205, 72 h / 3 days, values given as IC50 category. In a few lines:
In one
A general note: Cellular ATP, detected with luciferase, serves as a proxy for viable cell number.

The next experiment has as its system NCI-H929. The experiment can be described thus: Inhibition of cell proliferation (CellTiter-Glo or InCell analyzer), NCI-H929. Particulars: Homo sapiens, 72 h / 3 days, values given as IC50 category. It counts as cell-based. In a few lines:
In one

Chain of ALK (Q9UM73 19-1620): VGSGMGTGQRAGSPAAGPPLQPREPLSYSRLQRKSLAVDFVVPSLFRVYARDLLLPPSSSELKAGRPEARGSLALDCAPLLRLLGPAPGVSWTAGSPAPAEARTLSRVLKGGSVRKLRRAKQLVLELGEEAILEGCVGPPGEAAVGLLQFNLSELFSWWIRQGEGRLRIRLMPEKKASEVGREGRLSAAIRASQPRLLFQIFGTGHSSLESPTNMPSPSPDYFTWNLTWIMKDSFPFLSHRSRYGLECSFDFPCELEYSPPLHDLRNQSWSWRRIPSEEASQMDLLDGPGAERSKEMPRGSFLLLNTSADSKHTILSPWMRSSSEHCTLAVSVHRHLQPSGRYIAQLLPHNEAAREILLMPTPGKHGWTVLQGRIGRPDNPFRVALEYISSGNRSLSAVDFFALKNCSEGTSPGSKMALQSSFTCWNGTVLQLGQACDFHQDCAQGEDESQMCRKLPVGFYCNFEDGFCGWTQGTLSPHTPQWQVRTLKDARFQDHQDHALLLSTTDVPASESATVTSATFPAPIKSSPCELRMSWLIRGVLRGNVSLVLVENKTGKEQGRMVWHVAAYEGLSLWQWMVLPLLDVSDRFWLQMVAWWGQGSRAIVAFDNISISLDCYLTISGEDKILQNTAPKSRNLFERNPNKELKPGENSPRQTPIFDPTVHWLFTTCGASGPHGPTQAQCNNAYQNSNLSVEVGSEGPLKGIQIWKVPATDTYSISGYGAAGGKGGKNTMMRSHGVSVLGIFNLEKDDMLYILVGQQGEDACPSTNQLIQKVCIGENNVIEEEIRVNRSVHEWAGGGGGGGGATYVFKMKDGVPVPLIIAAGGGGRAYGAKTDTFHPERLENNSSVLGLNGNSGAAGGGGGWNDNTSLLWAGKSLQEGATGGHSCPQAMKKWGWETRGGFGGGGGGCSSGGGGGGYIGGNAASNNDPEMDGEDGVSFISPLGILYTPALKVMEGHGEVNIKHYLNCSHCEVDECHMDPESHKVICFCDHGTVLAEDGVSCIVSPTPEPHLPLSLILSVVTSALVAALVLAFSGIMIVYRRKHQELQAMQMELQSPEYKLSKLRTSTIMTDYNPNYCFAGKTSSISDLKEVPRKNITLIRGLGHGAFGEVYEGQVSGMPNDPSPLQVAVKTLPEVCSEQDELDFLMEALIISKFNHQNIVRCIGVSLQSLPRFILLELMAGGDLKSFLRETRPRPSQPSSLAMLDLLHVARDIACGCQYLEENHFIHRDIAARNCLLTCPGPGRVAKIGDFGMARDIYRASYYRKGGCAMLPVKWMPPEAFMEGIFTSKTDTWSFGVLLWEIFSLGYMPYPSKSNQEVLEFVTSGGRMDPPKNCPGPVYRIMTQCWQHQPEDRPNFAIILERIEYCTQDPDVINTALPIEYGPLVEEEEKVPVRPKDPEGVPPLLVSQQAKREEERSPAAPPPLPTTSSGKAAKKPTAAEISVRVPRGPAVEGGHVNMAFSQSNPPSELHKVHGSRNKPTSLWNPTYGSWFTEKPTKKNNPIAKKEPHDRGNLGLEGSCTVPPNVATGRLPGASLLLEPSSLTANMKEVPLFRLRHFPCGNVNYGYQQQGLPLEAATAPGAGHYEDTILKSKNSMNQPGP

Usually IC50 stands for the concentration that gives 50% inhibition. Read a high IC50 as weaker potency in that assay. In the case of `COc1cc2c(cc1Nc1nc(Nc3cccc(F)c3C(N)=O)c3cc[nH]c3n1)N(C(=O)N(C)C)CC2` [Example 146, 6-[(4-{[2-(aminocarbonyl)-3-fluorophenyl]amino}-1H-pyrrolo[2,3-d]pyrimidin-2-yl)amino]-N,N-dimethyl-5-(methyloxy)-2,3-dihydro-1H-indole-1-carboxamide], the IC50 against ALK was 5.01 to 200 nM; in the experiment with Colo205, > 1000 nM; in the experiment on NCI-H929, 250 to 1000 nM.
For `CNC(=O)c1c(F)cc(F)cc1Nc1nc(Nc2cc3c(cc2OC)CCN3C(=O)CN(C)C)nc2[nH]ccc12` [Example 190, 2-[(2-{[1-(N,N-dimethylglycyl)-5-(methyloxy)-2,3-dihydro-1H-indol-6-yl]amino}-1H-pyrrolo[2,3-d]pyrimidin-4-yl)amino]-4,6-difluoro-N-methylbenzamide], in that order: 0.251 to 1 nM, 250 to 1000 nM and < 250 nM.
For `COc1cc2c(cc1Nc1nc(Nc3cccc(F)c3C(N)=O)c3cc[nH]c3n1)NCCC2` [Example 211, 2-fluoro-6-[(2-{[6-(methyloxy)-1,2,3,4-tetrahydro-7-quinolinyl]amino}-1H-pyrrolo[2,3-d]pyrimidin-4-yl)amino]benzamide] the same measures were 5.01 to 200 nM, > 1000 nM and > 1000 nM.
For the molecule `COc1cc(OCCN2CCN(C)CC2)ccc1Nc1nc(Nc2cccc(F)c2C(N)=O)c2cc[nH]c2n1` [Example 203, 2-fluoro-6-({2-[(2-(methyloxy)-4-{[2-(4-methyl-1-piperazinyl)ethyl]oxy}phenyl)amino]-1H-pyrrolo[2,3-d]pyrimidin-4-yl}amino)benzamide], the IC50 on ALK is 0.251 to 1 nM; with Colo205 it was 250 to 1000 nM; in the experiment with NCI-H929, < 250 nM.
